Holding throughout (assay): filter binding kinase assay
Type in all cases: biochemical

For one assay, the target named is T1, MAPKAPK3 (Homo sapiens, UniProt Q16644).
T1 construct: purchased
The following applies: derived from % inhibition at 1 μM. As to the method: (§1) All kinase assays were carried out using the Multidrop 384 from Thermo-Fisher at room temperature in a total assay volume of 25.5 μl. 15 μl of an enzyme mix comprising enzyme and substrate in buffer are added to the test batch comprising either 0.5 μl of test substance, DMSO control or empty container. Test substances are pre-incubated in the presence of the enzyme and substrate for 5 minutes before the reaction is initiated by addition of 10 μl of ATP (concentration kinase-dependent of […]). The reaction is terminated by addition of 5 μl of orthophosphoric acid (50 mM). The test containers are then transferred onto P81 Unifilter plates by means of a “Packard Harvester” and dried in air. The dry Unifilter plates are sealed after the addition of MicroScint O, and the radioactivity is determined in a Packard Topcount NXT.

The next assay concerns the target T2, INSRR (Homo sapiens, UniProt P14616).
T2 construct: purchased
The following applies: derived from % inhibition at 1 μM. As to the method:
as §1

Another assay has as its target T3, PDPK1 (PDK1) (Homo sapiens, UniProt O15530).
T3 construct: purchased
T3 sequence (O15530 1-556): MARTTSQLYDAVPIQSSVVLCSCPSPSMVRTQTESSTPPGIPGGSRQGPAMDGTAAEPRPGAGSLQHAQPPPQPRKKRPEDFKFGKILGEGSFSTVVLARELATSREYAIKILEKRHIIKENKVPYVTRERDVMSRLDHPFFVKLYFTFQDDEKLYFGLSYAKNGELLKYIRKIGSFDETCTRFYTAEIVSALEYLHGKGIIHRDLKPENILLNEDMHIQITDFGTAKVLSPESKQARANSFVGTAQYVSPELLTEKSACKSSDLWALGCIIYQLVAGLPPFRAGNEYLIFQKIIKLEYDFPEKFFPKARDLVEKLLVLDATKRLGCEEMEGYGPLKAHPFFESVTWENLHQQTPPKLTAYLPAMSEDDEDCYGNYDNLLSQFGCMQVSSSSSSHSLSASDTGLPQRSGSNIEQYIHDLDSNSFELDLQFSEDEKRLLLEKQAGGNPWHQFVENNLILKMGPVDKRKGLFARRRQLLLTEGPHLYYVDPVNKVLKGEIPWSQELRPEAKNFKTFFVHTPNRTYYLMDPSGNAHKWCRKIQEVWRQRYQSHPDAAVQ
The settings on record: for IC50: derived from % inhibition at 1 μM, first PDPK1 line. As to the method:
as §1

A further assay deals with T4, MKNK1 (Homo sapiens, UniProt Q9BUB5).
T4 construct: purchased
T4 sequence (Q9BUB5 whole entry, species assumed): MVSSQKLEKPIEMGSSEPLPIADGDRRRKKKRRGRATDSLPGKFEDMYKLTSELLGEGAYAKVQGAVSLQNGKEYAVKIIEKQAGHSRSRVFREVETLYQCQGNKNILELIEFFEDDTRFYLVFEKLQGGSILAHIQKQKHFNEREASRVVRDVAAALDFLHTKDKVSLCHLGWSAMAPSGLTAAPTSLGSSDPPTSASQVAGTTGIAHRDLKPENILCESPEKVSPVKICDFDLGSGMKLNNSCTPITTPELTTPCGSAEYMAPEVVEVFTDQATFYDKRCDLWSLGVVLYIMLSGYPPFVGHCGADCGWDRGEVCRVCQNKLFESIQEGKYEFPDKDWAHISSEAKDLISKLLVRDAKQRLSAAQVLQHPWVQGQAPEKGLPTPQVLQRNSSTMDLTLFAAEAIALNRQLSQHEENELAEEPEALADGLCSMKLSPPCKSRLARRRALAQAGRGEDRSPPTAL
The following applies: derived from % inhibition at 1 μM. As to the method: as §1

The target in another assay is T5, FGFR1 (Homo sapiens, UniProt P11362).
T5 construct: purchased
T5 sequence (P11362 22-822, species assumed): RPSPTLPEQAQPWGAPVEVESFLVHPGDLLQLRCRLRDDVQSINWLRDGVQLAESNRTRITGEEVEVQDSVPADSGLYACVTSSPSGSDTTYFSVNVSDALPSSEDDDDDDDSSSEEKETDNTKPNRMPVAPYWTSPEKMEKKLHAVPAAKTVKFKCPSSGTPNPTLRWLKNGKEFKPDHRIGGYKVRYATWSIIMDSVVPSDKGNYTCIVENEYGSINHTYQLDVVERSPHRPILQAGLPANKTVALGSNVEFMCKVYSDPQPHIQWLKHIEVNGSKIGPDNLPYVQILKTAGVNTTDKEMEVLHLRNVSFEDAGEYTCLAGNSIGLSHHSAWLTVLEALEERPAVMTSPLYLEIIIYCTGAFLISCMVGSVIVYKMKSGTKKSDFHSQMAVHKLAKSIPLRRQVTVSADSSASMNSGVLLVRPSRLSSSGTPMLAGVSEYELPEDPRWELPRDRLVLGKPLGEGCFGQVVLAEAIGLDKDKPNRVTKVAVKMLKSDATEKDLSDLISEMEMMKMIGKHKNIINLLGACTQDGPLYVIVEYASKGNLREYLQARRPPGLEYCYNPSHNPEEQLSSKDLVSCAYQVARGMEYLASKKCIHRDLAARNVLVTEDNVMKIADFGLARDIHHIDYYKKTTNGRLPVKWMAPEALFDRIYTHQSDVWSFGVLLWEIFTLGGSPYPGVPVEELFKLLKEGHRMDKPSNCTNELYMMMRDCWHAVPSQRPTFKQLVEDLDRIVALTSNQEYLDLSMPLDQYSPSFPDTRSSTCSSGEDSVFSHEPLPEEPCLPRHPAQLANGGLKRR
The settings on record: derived from % inhibition at 1 μM. As to the method: as §1

Another assay deals with T6, MAPK9 (Homo sapiens, UniProt P45984).
T6 construct: purchased
The settings on record: derived from % inhibition at 1 μM. As to the method: as §1

In a further assay the target is T7, MAP3K11 (MLK3) (Homo sapiens, UniProt Q16584).
T7 construct: purchased
The following applies: for IC50: derived from % inhibition at 1 μM. As to the method:
as §1

The target of another assay is T8, NEK6 (Homo sapiens, UniProt Q9HC98).
T8 construct: purchased
T8 sequence (Q9HC98 whole entry, species assumed): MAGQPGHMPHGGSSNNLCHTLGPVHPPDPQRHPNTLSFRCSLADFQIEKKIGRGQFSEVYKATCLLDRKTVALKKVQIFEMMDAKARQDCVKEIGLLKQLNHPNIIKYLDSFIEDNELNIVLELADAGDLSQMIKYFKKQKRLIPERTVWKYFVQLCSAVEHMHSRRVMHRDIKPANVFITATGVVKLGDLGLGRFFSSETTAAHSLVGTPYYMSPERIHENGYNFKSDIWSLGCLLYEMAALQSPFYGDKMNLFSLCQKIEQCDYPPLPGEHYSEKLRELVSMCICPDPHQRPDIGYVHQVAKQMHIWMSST
The following applies: derived from % inhibition at 1 μM. As to the method:
as §1

The target in the next assay is T9, MAPK12 (Homo sapiens, UniProt P53778).
T9 construct: purchased
T9 sequence (P53778 1-367): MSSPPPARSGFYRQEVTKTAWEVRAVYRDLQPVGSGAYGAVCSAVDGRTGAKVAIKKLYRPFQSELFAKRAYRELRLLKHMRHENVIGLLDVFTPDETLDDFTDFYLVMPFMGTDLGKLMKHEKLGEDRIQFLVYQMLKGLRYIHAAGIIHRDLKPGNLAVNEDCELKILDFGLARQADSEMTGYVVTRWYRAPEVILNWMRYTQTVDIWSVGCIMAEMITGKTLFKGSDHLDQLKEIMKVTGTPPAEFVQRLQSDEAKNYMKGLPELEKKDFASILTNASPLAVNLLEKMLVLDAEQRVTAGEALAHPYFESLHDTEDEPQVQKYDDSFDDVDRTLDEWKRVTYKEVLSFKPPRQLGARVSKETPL
The settings on record: derived from % inhibition at 1 μM. As to the method:
as §1

In a further assay the target is T10, EEF2K (Homo sapiens, UniProt O00418).
T10 construct: purchased
The settings on record: derived from % inhibition at 1 μM. As to the method: as §1

Another assay has as its target T11, PRKAA1 (Homo sapiens, UniProt Q13131).
T11 construct: purchased
The settings on record: derived from % inhibition at 1 μM. As to the method: as §1

In a further assay the target is T12, RPS6KB1 (Homo sapiens, UniProt P23443).
T12 construct: purchased
T12 sequence (P23443 whole entry, species assumed): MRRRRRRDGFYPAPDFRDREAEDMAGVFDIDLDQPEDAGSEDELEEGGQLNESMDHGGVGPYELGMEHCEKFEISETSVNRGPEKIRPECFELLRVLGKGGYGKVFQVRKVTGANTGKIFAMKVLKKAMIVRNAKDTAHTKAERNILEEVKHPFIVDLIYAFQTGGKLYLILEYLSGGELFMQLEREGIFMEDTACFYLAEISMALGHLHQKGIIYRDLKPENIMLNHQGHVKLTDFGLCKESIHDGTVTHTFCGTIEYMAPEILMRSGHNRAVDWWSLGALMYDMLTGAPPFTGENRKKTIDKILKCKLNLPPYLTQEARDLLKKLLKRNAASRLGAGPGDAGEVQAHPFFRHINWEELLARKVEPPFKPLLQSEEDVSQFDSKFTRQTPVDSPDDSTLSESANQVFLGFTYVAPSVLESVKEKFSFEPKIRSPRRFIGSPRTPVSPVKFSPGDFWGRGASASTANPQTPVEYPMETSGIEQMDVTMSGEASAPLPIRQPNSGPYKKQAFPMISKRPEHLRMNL
The settings on record: derived from % inhibition at 1 μM. As to the method:
as §1

For a further assay, the target named is T13, SRPK1 (Homo sapiens, UniProt Q96SB4).
T13 construct: purchased
The settings on record: derived from % inhibition at 1 μM. As to the method:
as §1

The next assay concerns the target T14, CHEK2 (Homo sapiens, UniProt O96017).
T14 construct: purchased
The settings on record: derived from % inhibition at 1 μM. As to the method:
as §1

The target of another assay is T15, MKNK2 (Homo sapiens, UniProt Q9HBH9).
T15 construct: purchased
The settings on record: derived from % inhibition at 1 μM. As to the method: as §1

The next assay has as its target T16, IRAK4 (Homo sapiens, UniProt Q9NWZ3).
T16 construct: purchased
T16 sequence (Q9NWZ3 1-460): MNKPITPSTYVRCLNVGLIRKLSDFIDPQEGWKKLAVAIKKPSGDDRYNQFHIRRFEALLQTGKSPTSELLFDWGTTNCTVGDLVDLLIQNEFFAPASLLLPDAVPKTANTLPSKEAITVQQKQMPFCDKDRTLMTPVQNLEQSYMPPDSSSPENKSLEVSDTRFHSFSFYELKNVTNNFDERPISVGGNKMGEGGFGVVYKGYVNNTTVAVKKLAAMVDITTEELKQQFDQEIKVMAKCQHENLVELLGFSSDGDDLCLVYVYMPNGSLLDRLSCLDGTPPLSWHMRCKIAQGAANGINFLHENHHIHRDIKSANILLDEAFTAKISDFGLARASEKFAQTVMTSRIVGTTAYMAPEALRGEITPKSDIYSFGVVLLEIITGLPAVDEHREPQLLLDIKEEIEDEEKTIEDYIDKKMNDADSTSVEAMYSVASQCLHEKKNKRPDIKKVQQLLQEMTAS
The settings on record: derived from % inhibition at 1 μM. As to the method:
as §1

The target in the next assay is T17, PAK6 (Homo sapiens, UniProt Q9NQU5).
T17 construct: purchased
The settings on record: derived from % inhibition at 1 μM. As to the method:
as §1

The target in another assay is T18, MAP3K9 (Homo sapiens, UniProt P80192).
T18 construct: purchased
The settings on record: derived from % inhibition at 1 μM. As to the method: as §1

A further assay has as its target T19, MST4 (Homo sapiens, UniProt Q9P289).
T19 construct: purchased
The following applies: derived from % inhibition at 1 μM. As to the method: as §1

Another assay has as its target T20, ROCK2 (Rock II) (Homo sapiens, UniProt O75116).
T20 construct: purchased
The following applies: for IC50: derived from % inhibition at 1 μM. As to the method: as §1

T11 sequence (Q13131 whole entry, species assumed): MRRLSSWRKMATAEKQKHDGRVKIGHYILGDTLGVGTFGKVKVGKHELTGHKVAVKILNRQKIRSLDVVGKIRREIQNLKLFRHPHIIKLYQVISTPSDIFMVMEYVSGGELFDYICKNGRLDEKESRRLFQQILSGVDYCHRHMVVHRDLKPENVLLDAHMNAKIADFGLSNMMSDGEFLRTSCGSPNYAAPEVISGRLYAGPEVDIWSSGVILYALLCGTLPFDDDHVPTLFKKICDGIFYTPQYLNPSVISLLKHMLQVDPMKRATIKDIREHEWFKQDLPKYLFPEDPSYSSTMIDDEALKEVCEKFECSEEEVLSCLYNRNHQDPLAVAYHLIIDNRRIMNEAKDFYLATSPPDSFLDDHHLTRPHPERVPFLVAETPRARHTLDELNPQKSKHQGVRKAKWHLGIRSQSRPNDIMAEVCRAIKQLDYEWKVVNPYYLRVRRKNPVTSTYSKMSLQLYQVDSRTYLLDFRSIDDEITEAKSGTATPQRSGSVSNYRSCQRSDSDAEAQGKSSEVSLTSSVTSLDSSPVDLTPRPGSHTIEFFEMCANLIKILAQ
T11 sequence (Q9Y478 whole entry partner, species assumed): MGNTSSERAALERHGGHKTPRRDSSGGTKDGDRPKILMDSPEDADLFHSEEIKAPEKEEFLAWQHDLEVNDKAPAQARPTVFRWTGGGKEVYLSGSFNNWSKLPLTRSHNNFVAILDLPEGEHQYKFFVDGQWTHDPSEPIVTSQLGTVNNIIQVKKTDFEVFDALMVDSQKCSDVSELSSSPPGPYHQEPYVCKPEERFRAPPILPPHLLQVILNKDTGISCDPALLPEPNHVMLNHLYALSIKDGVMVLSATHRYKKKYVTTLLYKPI
T11 sequence (P54619 whole entry partner, species assumed): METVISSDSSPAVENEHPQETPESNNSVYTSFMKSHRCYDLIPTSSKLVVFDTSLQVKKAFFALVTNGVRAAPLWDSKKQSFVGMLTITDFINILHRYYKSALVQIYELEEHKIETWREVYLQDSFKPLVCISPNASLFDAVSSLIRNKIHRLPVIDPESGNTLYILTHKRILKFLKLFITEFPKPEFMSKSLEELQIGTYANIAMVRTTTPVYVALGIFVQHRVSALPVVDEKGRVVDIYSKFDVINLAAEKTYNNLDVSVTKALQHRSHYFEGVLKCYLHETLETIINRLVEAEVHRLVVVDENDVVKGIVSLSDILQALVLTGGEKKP
T1 sequence (Q16644 whole entry, species assumed): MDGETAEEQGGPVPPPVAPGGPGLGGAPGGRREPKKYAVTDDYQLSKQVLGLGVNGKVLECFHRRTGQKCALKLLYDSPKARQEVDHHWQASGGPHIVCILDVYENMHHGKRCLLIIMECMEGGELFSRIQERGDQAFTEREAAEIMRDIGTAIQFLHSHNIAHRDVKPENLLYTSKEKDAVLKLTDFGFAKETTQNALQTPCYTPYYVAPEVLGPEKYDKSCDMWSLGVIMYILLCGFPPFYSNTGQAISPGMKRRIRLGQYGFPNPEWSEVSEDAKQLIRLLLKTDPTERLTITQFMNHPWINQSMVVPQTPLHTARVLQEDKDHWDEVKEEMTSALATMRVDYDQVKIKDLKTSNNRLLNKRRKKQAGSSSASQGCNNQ
T2 sequence (P14616 27-1297, species assumed): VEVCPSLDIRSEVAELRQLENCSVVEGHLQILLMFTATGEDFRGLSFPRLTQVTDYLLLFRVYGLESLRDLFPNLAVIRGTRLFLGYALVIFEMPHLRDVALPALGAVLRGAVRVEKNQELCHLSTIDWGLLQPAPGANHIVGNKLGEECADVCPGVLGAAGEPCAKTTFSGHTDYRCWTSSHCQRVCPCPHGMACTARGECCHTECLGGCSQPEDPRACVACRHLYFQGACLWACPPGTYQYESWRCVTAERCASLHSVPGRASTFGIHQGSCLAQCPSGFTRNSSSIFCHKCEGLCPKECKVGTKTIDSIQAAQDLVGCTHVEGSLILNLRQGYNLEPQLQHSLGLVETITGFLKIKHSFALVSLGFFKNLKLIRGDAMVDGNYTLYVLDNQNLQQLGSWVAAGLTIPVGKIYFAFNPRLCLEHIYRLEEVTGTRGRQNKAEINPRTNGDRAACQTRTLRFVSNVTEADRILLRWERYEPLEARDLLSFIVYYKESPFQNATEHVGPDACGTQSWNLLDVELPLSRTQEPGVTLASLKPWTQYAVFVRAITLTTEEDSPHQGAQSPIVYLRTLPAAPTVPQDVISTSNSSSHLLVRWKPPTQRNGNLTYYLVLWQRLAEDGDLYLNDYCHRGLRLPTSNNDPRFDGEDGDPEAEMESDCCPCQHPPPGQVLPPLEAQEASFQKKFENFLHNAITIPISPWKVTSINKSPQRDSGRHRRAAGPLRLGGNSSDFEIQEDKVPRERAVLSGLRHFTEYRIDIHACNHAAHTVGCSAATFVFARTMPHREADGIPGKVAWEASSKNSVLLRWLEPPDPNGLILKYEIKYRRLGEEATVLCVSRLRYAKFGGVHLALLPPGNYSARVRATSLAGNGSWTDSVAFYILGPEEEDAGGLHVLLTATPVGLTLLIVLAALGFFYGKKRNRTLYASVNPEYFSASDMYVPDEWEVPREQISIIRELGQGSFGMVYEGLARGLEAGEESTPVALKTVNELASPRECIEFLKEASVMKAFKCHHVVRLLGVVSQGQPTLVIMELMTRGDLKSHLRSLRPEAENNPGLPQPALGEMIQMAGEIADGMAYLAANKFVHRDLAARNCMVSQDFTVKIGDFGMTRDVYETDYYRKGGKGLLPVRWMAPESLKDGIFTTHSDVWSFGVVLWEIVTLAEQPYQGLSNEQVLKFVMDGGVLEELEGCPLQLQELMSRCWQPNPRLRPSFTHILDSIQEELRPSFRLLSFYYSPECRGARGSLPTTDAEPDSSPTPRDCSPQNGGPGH

By IC50 is commonly meant the midpoint of a concentration-inhibition curve. Higher therefore signals weaker potency. Turning to `Nc1ncsc1C#Cc1cnc2[nH]ccc2c1` [Compound A22, 5-(1H-pyrrolo[2,3-b]pyridin-5-ylethynyl)thiazol-4-ylamine], the IC50 was more than 1 µM on MAPKAPK3; 1 to 10 µM on INSRR; 1 to 10 µM on PDPK1 (PDK1); 10 to 100 µM at MKNK1; 1 to 10 µM at FGFR1; more than 1 µM at MAPK9. Further, the IC50 on MAP3K11 (MLK3) was 0.01 to 1 µM; at NEK6, more than 1 µM; on MAPK12 it was 1 to 10 µM; on EEF2K, 10 to 100 µM; on PRKAA1, 10 to 100 µM; at RPS6KB1 it was 1 to 10 µM. The IC50 on SRPK1 was more than 1 µM; on CHEK2 it was more than 1 µM; at MKNK2 it was more than 1 µM; at IRAK4, more than 1 µM; at PAK6, 10 to 100 µM; at MAP3K9 it was 1 to 10 µM. The IC50 is 1 to 10 µM at MST4 and more than 1 µM on ROCK2 (Rock II). Moreover, the remaining activity at 1 µM was found to be 53% on PDPK1 (PDK1) (read-out: residual kinase activity PDK1) and 23% at MAP3K11 (MLK3) (read-out: residual kinase activity MLK3).

For `CC(C)(C)OC(=O)Nc1ncsc1C#CCN1C(=O)c2ccccc2C1=O` [Compound A26, tert-butyl{5-[3-(1,3-dioxo-1,3-dihydroisoindol-2-yl)prop-1-ynyl]-thiazol-4-yl}carbamate], the IC50 was more than 1 µM on MAPKAPK3; 1 to 10 µM on INSRR; 1 to 10 µM at PDPK1 (PDK1); more than 1 µM at MKNK1; 1 to 10 µM on FGFR1; more than 1 µM on MAPK9. Besides, the IC50 at MAP3K11 (MLK3) is 1 to 10 µM; on NEK6, 10 to 100 µM; on MAPK12, 10 to 100 µM; on EEF2K, 10 to 100 µM; on PRKAA1 it was 10 to 100 µM; at RPS6KB1, more than 1 µM. Also, the IC50 on SRPK1 is more than 1 µM; at CHEK2 it was more than 1 µM; on MKNK2, 10 to 100 µM; at IRAK4 it was 10 to 100 µM; on PAK6, more than 1 µM; at MAP3K9 it was 1 to 10 µM. The figures for the IC50 at MST4 and on ROCK2 (Rock II) were 10 to 100 µM and more than 1 µM, respectively.

For `Nc1ncsc1C#Cc1cccc(O)c1` [Compound A27, 3-(4-aminothiazol-5-ylethynyl)phenol], the IC50 is 10 to 100 µM at MAPKAPK3; more than 1 µM at INSRR; more than 1 µM at PDPK1 (PDK1); 10 to 100 µM on MKNK1; more than 1 µM on FGFR1; 1 to 10 µM on MAPK9. Further, the concentration for half-maximal inhibition (IC50) at MAP3K11 (MLK3) is 10 to 100 µM; on NEK6, 10 to 100 µM; at MAPK12, 1 to 10 µM; on EEF2K, 1 to 10 µM; at PRKAA1, 1 to 10 µM; at RPS6KB1, 1 to 10 µM. Moreover, the 50% inhibitory concentration (IC50) was 1 to 10 µM on SRPK1; 10 to 100 µM at CHEK2; more than 1 µM on MKNK2; 10 to 100 µM at IRAK4; 10 to 100 µM on PAK6; 1 to 10 µM on MAP3K9. Moreover, the IC50 at MST4 is more than 1 µM; at ROCK2 (Rock II), 10 to 100 µM.

`CC(C)(C)OC(=O)Nc1nc(-c2ccncc2)sc1C#CCN1CCOCC1` [Compound A25, tert-butyl[5-(3-morpholin-4-ylprop-1-ynyl)-2-pyridin-4-ylthiazol-4-yl]-carbamate]: the IC50 on MAPKAPK3 was 10 to 100 µM; on INSRR, more than 1 µM; on PDPK1 (PDK1), more than 1 µM; at MKNK1 it was more than 1 µM; at FGFR1, more than 1 µM; on MAPK9, more than 1 µM. Further, the IC50 on MAP3K11 (MLK3) is more than 1 µM; on NEK6 it was 1 to 10 µM; at MAPK12, 10 to 100 µM; on EEF2K it was more than 1 µM; at PRKAA1, 10 to 100 µM; at RPS6KB1 it was more than 1 µM. Also, the IC50 on SRPK1 was more than 1 µM; at CHEK2 it was more than 1 µM; on MKNK2, more than 1 µM; on IRAK4 it was 10 to 100 µM; on PAK6 it was 10 to 100 µM; on MAP3K9, more than 1 µM. Also, the IC50 at MST4 is more than 1 µM; on ROCK2 (Rock II), 10 to 100 µM.

As for `c1ccc(Cc2c[nH]c3ncsc23)cc1` [Compound A7, 6-benzyl-4H-pyrrolo[2,3-d]thiazole], the IC50 on MAPKAPK3 was more than 1 µM; on INSRR, more than 1 µM; at PDPK1 (PDK1), more than 1 µM; on MKNK1, more than 1 µM; at FGFR1, 1 to 10 µM; on MAPK9 it was 10 to 100 µM. In addition, the IC50 at MAP3K11 (MLK3) is 10 to 100 µM; on NEK6 it was 10 to 100 µM; at MAPK12, more than 1 µM; on EEF2K, 10 to 100 µM; at PRKAA1 it was 10 to 100 µM; at RPS6KB1, 1 to 10 µM. For the same compound, the IC50 on SRPK1 is 10 to 100 µM; on CHEK2 it was more than 1 µM; at MKNK2, more than 1 µM; on IRAK4 it was more than 1 µM; on PAK6, more than 1 µM; on MAP3K9, 1 to 10 µM. The IC50 on MST4 is more than 1 µM; on ROCK2 (Rock II), 0.01 to 1 µM. On ROCK2 (Rock II) (read-out: residual kinase activity Rock II), the remaining activity at 1 µM is 36%.

The record behind these values is US8703961B2, “Thiazole derivatives for the treatment of diseases such as cancer” (Merck Patent GmbH, priority 2009, dated 2014).
